Laboratory results from patent US20160050929A1, “METHODS OF CONTROLLING NEONICOTINOID RESISTANT PESTS” (SYNGENTA PARTICIPATIONS AG, priority 2013, published 2016).

Test system: Orius laevigatus
Test: Safety to beneficial species: test on Orius laevigatus
Type: in vivo
Conditions: Orius laevigatus adults; for Corrected Mortality (%) 2 DAI: 2 days after infestation; for Corrected Mortality (%) 4 DAI: 4 days after infestation
Method: Phaseolus vulgaris var. Fulvio (french bean) plants were reduced to one leaf. With the leaves held in a horizontal position, a track sprayer was used to treat the plants at a rate corresponding to […]. Once dry, leaf discs were collected from the plants and placed treated side up in petri dishes containing 1% water agar.
A paper triangle was added for shelter, and a suitable amount of Ephestia eggs were added as a food supply. Five (5) Orius laevigatus (predatory bug, Syngenta Bioline) adults were added and the dishes closed with a cotton filter and perforated plastic lid. The dishes were incubated in a climate chamber at 25° C., 75% relative humidity, 16:8 h light/dark regime.
Six replicates were provided for each treatment and concentration level. The number of living and dead Orius laevigatus were counted two and four days after infestation (DAI). At the day two evaluation the food supply was replenished.

Row | Structure (SMILES) | Corrected Mortality (%) 2 DAI (rate 50 ppm) [%] | Corrected Mortality (%) 4 DAI (rate 50 ppm) [%] | Corrected Mortality (%) 2 DAI (rate 100 ppm) [%] | Corrected Mortality (%) 4 DAI (rate 100 ppm) [%] | Corrected Mortality (%) 2 DAI (rate 200 ppm) [%] | Corrected Mortality (%) 4 DAI (rate 200 ppm) [%]
1 | O=[N+]([O-])NC1=NCCN1Cc1ccc(Cl)nc1 [Imidacloprid, imidacloprid] | 11 | 30 | 43 | 65 | 75 | 100
2 | C#CCN1[C@@H]2CC[C@H]1C[C@](C#N)(c1cncc(C#C)c1)C2 [Compound 1.070] | 0 | 0 | 0 | 0 | 0 | 0
